Experimental data published in US9688691B2, “Macrocyclic quinazole derivatives and their use as MTKI” (Janssen Pharmaceutica NV, priority 2004, dated 2017).

Key:
Assay type in all cases: biochemical
cSRC (h) = cSRC (h) (Homo sapiens, UniProt P12931); assay: Kinase profiling, glass-fiber filter technology: cSRC; conditions: test concentration of 10^−6 M; read-out: cSRC inhibition score
Procedure: (§1) The in vitro inhibition of a panel of kinases was assessed using the glass-fiber filter technology as described by Davies, S. P. et al., Biochem J. (2000), 351; p. 95-105.
(§2) In the glass-fiber filter technology the activity of the kinase of interest is measured using an appropriate substrate that is incubated with the aforementioned kinase protein in the presence of (^33P) radiolabeled ATP. (^33P) Phosporylation of the substrate is subsequently measured as radioactivity bound on a glassfiber-filter.
(§3) All kinases are pre-diluted to a 10× working concentration prior to addition into the assay. The composition of the dilution buffer for each kinase is detailed below.
(§4) All substrates are dissolved and diluted to working stocks in de-ionised water.
(§5) In a final reaction volume of 25 μl, cSRC (h) (5-10 mU) is incubated with 8 mM MOPS pH 7.0, 0.2 mM EDTA, 250 μM KVEKIGEGTYGVVYK (Cdc2 peptide), 10 mM MgAcetate and [γ-^33P-ATP] (specific activity approx. 500 cpm/pmol, concentration as required). The reaction is initiated by the addition of the MgATP mix. After incubation for 40 minutes at room temperature, the reaction is stopped by the addition of 5 μl of a 3% phosphoric acid solution.
(§6) 10 μl of the reaction is then spotted onto a P30 filtermat and washed three times for 5 minutes in 75 mM phosphoric acid and once in methanol prior to drying and scintillation counting.

EGFR (h) = EGFR (h) (Homo sapiens, UniProt P00533); assay: Kinase profiling, glass-fiber filter technology: EGFR; conditions: test concentration of 10^−6 M; read-out: EGFR inhibition score
Procedure: as §1, §2, §3, §4
as §5, with “EGFR” for “cSRC”, “10 mM MnCl2, 0.1 mg/ml poly(Glu, Tyr) 4:1,” for “250 μM KVEKIGEGTYGVVYK (Cdc2 peptide),”, “solution. 10 μl of the reaction is then spotted onto a Filtermat A and washed three times for 5 minutes in 75 mM phosphoric acid and once in methanol prior to drying and scintillation counting.” for “solution.”

Lck (h) = Lck (h) (Homo sapiens, UniProt P06239); assay: Kinase profiling, glass-fiber filter technology: Lck; conditions: test concentration of 10^−6 M; read-out: Lck inhibition score
Procedure: as §1, §2, §3, §4
as §5, with “Lck” for “cSRC”, “50” for “8”, “Tris” for “MOPS”, “7.5, 0.1” for “7.0, 0.2”, “EGTA, 0.1 mM Na3VO4,” for “EDTA,”
as §6

Lyn (h) = Lyn (h) (Homo sapiens, UniProt P07948); assay: Kinase profiling, glass-fiber filter technology: Lyn; conditions: test concentration of 10^−6 M; read-out: Lyn inhibition score
Procedure: as §1, §2, §3, §4
(§7) In a final reaction volume of 25 μl, Lyn (h) (5-10 mU) is incubated with 50 mM Tris pH 7.5, 0.1 mM EGTA, 0.1 mM Na3VO4, 0.1% β-mercaptoethanol, 0.1 mg/ml poly(Glu, Tyr) 4:1, 10 mM MgAcetate and [γ-^33P-ATP] (specific activity approx. 500 cpm/pmol, concentration as required). The reaction is initiated by the addition of the MgATP mix. After incubation for 40 minutes at room temperature, the reaction is stopped by the addition of 5 μl of a 3% phosphoric acid solution. 10 μl of the reaction is then spotted onto a Filtermat A and washed three times for 5 minutes in 75 mM phosphoric acid and once in methanol prior to drying and scintillation counting.

Yes (h) = Yes (h) (Homo sapiens, UniProt P07947); assay: Kinase profiling, glass-fiber filter technology: Yes; conditions: test concentration of 10^−6 M; read-out: Yes inhibition score
Procedure: as §1, §2, §3, §4
as §7, with “μl, Yes” for “μl, Lyn”, “with 8” for “with 50”, “mM MOPS” for “mM Tris”, “pH 7.0, 0.2” for “pH 7.5, 0.1”, “mM EDTA,” for “mM EGTA, 0.1 mM Na3VO4, 0.1% β-mercaptoethanol,”

Blk (m) = Blk (m) (Mus musculus, UniProt P16277); assay: Kinase profiling, glass-fiber filter technology: Blk; conditions: test concentration of 10^−6 M; read-out: Blkl inhibition score
Procedure: as §1, §2, §3, §4
as §7, with “Blk (m)” for “Lyn (h)”, “[γ-33P-ATP]” for “[γ-^33P-ATP]”

Abl (h) = Abl (h) (Homo sapiens, UniProt P00519); assay: Kinase profiling, glass-fiber filter technology: Abl; conditions: test concentration of 10^−6 M; read-out: Abl inhibition score
Procedure: as §1, §2, §3, §4
as §7, with “Abl” for “Lyn”, “with 8 mM MOPS pH 7.0, 0.2 mM EDTA,” for “with”, “μM EAIYAAPFAKKK,” for “mM Tris pH 7.5, 0.1 mM EGTA, 0.1 mM Na3VO4, 0.1% β-mercaptoethanol, 0.1 mg/ml poly(Glu, Tyr) 4:1,”, “P30 filtermat” for “Filtermat A”

Fyn human = Fyn human (Homo sapiens, UniProt P06241); assay: Kinase profiling, glass-fiber filter technology: Fyn; conditions: test concentration of 10^−6 M; read-out: Fyn inhibition score
Procedure: as §1, §2, §3, §4
as §7, with “Fyn human” for “Lyn (h)”, “250 μM KVEKIGEGTYGVVYK (Cdc2 peptide),” for “0.1% β-mercaptoethanol, 0.1 mg/ml poly(Glu, Tyr) 4:1,”, “P30 filtermat” for “Filtermat A”

Ret human = Ret human (Homo sapiens, UniProt P07949); assay: Kinase profiling, glass-fiber filter technology: Ret; conditions: test concentration of 10^−6 M; read-out: Ret inhibition score
Procedure: as §1, §2, §3, §4
as §7, with “μl, Ret human” for “μl, Lyn (h)”, “with 8” for “with 50”, “mM MOPS” for “mM Tris”, “pH 7.0, 0.2” for “pH 7.5, 0.1”, “mM EDTA, 250 μM KKKSPGEYVNIEFG,” for “mM EGTA, 0.1 mM Na3VO4, 0.1% β-mercaptoethanol, 0.1 mg/ml poly(Glu, Tyr) 4:1,”, “a P30 filtermat” for “a Filtermat A”

ErbB4 (h) = ErbB4 (h) (Homo sapiens, UniProt Q15303); assay: Kinase profiling, glass-fiber filter technology: ErbB4; conditions: test concentration of 10^−6 M; read-out: ErbB4 inhibition score
Procedure: as §1, §2, §3, §4
In a final reaction volume of 25 μl, ErbB4 (h) (5-10 mU) is incubated with 8 mM MOPS pH 7.0, 0.2 mM EDTA, 10 mM MnCl2, 0.1 mg/ml poly(Glu, Tyr) 4:1, 10 mM MgAcetate and [γ-33P-ATP] (specific activity approx. 500 cpm/pmol, concentration as required). The reaction is initiated by the addition of the MgATP mix. After incubation for 40 minutes at room temperature, the reaction is stopped by the addition of 5 μl of a 3% phosphoric acid solution. 10 μl of the reaction is then spotted onto a Filtermat A and washed three times for 5 minutes in 75 mM phosphoric acid and once in methanol prior to drying and scintillation counting.

Chain of Yes (h) (P07947 whole entry): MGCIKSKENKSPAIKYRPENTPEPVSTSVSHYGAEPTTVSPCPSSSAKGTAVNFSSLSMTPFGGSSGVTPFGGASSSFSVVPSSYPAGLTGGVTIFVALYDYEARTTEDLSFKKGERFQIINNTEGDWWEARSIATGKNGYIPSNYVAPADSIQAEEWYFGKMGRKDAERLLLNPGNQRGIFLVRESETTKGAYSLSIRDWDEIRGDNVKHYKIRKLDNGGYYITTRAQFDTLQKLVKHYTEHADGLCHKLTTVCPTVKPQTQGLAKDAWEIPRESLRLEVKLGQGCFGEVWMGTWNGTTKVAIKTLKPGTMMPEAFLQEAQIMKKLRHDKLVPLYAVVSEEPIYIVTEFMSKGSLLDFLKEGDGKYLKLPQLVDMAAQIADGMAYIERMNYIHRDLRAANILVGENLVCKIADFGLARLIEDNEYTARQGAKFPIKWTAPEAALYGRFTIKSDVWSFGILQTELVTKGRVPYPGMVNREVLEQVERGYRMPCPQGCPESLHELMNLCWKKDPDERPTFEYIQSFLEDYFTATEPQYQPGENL
Chain of Lck (h) (P06239 whole entry): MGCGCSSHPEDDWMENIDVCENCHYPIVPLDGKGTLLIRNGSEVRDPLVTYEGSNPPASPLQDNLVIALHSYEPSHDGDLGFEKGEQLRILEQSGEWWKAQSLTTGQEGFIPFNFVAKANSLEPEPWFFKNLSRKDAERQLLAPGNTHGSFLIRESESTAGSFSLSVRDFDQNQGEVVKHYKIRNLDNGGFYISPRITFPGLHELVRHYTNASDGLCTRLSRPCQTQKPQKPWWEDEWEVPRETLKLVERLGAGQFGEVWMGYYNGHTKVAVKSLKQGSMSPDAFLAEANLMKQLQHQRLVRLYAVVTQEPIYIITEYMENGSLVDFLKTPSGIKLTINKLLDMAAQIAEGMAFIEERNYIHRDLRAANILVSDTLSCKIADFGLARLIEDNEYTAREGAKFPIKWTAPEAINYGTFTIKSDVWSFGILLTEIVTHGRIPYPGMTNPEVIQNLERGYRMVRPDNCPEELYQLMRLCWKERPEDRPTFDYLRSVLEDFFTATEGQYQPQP
Chain of cSRC (h) (P12931 whole entry): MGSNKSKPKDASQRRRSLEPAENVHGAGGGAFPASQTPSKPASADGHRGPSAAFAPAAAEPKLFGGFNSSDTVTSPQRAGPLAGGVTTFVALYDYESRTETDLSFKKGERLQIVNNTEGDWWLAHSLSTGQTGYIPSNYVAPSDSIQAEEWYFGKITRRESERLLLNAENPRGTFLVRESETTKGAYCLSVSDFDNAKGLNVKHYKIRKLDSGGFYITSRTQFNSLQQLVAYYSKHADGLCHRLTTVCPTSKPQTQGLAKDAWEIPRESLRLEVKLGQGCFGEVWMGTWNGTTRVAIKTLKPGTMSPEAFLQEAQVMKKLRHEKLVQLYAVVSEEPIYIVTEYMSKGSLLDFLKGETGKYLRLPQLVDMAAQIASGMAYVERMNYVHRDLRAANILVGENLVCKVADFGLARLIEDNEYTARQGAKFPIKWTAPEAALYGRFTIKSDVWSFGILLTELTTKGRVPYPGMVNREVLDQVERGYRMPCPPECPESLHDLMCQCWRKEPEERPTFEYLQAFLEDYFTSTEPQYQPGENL
Chain of EGFR (h) (P00533 25-1210): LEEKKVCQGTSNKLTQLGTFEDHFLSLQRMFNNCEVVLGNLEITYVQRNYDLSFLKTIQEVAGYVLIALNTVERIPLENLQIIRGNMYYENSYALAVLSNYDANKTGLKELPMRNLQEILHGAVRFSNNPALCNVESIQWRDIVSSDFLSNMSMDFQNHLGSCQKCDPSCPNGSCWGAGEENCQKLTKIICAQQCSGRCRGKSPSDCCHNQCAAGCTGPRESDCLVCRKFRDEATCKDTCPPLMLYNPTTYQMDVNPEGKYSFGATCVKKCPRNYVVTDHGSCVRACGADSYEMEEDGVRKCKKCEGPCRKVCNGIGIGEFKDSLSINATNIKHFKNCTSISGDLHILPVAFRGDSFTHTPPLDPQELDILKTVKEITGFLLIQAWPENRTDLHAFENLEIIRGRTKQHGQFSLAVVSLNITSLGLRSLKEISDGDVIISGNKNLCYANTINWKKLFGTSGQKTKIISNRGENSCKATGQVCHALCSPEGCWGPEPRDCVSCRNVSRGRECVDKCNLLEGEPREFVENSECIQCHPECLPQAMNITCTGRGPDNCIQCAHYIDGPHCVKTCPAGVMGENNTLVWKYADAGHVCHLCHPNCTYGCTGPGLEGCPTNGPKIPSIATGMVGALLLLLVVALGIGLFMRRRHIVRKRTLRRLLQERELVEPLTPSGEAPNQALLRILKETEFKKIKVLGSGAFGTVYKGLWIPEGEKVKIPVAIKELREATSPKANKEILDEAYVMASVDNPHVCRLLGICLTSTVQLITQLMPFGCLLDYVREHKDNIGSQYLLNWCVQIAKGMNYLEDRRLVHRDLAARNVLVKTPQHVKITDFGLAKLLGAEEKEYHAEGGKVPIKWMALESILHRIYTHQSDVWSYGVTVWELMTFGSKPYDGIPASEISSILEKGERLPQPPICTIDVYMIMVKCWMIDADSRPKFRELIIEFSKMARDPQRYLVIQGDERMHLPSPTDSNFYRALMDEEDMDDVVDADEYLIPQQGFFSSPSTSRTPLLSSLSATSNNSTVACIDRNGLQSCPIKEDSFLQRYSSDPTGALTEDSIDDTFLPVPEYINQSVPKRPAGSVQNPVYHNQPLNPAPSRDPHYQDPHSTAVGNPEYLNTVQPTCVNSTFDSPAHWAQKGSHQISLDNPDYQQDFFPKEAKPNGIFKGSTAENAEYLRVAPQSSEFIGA
Chain of Fyn human (P06241 whole entry): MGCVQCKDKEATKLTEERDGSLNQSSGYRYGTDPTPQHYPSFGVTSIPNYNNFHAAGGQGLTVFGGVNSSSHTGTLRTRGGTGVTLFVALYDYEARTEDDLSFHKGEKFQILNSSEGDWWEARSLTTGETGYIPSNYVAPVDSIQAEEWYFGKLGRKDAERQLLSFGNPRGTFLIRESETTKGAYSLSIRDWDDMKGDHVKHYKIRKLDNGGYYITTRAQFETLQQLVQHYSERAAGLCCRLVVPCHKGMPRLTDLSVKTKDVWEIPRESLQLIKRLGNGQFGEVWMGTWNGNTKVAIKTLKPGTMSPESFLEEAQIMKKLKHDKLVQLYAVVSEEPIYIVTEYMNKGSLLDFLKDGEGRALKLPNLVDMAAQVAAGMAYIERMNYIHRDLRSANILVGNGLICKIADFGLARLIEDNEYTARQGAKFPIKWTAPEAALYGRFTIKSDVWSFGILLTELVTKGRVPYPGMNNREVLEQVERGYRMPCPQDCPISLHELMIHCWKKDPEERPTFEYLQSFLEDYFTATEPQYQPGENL
Chain of Lyn (h) (P07948 whole entry): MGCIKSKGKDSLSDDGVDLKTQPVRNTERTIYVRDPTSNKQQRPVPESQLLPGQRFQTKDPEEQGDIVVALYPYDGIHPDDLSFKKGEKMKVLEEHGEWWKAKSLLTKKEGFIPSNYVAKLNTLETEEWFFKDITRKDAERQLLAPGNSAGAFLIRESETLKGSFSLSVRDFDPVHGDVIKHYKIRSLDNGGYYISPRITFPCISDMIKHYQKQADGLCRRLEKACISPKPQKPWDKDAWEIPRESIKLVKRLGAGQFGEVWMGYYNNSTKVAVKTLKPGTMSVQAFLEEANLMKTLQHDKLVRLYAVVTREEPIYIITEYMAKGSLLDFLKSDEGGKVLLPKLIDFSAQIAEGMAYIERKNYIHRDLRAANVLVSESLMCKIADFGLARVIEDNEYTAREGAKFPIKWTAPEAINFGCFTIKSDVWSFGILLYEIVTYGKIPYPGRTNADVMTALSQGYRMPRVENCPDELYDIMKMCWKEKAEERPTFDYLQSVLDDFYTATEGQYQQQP
Chain of Blk (m) (P16277 whole entry): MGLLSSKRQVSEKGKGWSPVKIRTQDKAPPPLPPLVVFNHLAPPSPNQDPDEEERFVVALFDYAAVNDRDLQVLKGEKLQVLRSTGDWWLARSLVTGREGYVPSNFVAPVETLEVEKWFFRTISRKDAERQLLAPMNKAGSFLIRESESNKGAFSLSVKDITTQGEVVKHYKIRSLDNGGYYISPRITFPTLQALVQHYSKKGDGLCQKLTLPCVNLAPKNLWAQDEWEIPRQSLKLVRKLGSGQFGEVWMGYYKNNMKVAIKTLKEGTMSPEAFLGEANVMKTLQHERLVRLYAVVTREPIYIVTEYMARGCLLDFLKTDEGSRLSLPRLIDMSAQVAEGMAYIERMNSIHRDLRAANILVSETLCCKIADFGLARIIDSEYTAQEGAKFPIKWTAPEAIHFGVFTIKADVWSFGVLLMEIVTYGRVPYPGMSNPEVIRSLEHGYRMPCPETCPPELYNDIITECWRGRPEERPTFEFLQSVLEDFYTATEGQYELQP

inhibition at 1 µM (cSRC (h)) [%]	inhibition at 1 µM (EGFR (h)) [%]	inhibition at 1 µM (Lck (h)) [%]	inhibition at 1 µM (Lyn (h)) [%]	inhibition at 1 µM (Yes (h)) [%]	inhibition at 1 µM (Blk (m)) [%]	inhibition at 1 µM (Abl (h)) [%]	inhibition at 1 µM (Fyn human) [%]	inhibition at 1 µM (Ret human) [%]	inhibition at 1 µM (ErbB4 (h)) [%]	SMILES
60 to 80	> 80	10 to 30	30 to 60	30 to 60	30 to 60	–	–	–	–	COc1cc2ncnc3c2cc1OCCN(CCN1CCOCC1)C(=O)CNC(=O)Cc1ccc(Cl)cc1N3 [Compound 1]
> 80	> 80	> 80	–	> 80	–	10 to 30	60 to 80	> 80	60 to 80	COc1cc2ncnc3c2cc1OCCCNC(=O)[C@H](CC1CCCCC1)NC(=O)CCc1ccc(Cl)cc1N3 [Compound 8]
